Results on 15 molecules are retold here after patent US12157750B2, “Bright targetable red CA2+ indicators” (HOWARD HUGHES MEDICAL INSTITUTE, priority 2019, dated 2024).

A short description of data set [1]: Calcium titrations in EGTA buffer system (ΔF/F0, Kd determination). In kind it is binding. The note with it: for Kd: in vitro Ca2+ binding; for ΔF/F0: Ca2+-dependent change in fluorescence over baseline. On the procedure:
(§1) All measurements were taken at ambient temperature (23±2° C.). […] Spectroscopy was performed using 1-cm path length quartz cuvettes (Starna). Absorption measurements were recorded on a Cary Model 100 spectrometer (Varian). Fluorescence measurements spectra were recorded on a Cary Eclipse fluorometer (Varian). Images were processed in ImageJ/Fiji. Data was analyzed and graphs were plotted using Prism (GraphPad). Movie renderings were done using Imaris (Bitplane)
(§2) Example 15: UV-Vis and Fluorescence Spectroscopy, Kd Determination. UV-Vis and fluorescence spectra were measured in a commercial EGTA buffer system (Invitrogen) following the associated protocol. […] For calcium titrations of the HaloTag ligands in the presence of HaloTag protein, the dye was incubated with 1.5 eq of purified HaloTag protein ([…] solution in 75 mM NaCl, 50 mM Tris-HCl, pH 7.4) for 1 h at room temperature. Calcium titrations were then performed using the commercial EGTA buffer system to which 0.1 mg·mL^−1 CHAPS was added. All the calcium titrations were performed in duplicate.

Data set [2] in a line: UV-Vis and fluorescence spectroscopy. In kind it is physicochemical. The note with it: in vitro; for λmax: first value of λmax/λem; for λem: second value of λmax/λem. How it is done: as §1, §2
Data set [3] is described as follows: Quantum yield determination. In kind it is physicochemical. The note with it: fluorescence quantum yield at saturating Ca2+. On the procedure: Example 16: Quantum Yield Determination. Absolute quantum yields (Φ) were measured using a Quantaurus-QY spectrometer (model C11374) from Hamamatsu. This instrument uses an integrating sphere to determine photons absorbed and emitted by a sample. Measurements were carried out using dilute samples (A<0.1) and self-absorption corrections were performed using the instrument software.^27

In another data set the target is HaloTag protein (Rhodococcus rhodochrous, UniProt P0A3G2, A155T/A167V/A172T/A224E/C128F/C176G/D78G/E160K/E257K/H272N/K175M/K195N/L47V/L88M/N227D/P291S/S2A/S58T/T264A/Y273L/Y87F). The data set is described as follows: Calcium titrations in the presence or absence of excess HaloTag protein. In kind it is biochemical. The note with it: in vitro; saturating [Ca2+]. On the procedure: as §2

In data set [4] the test system is Primary rat hippocampal neurons. The data set is described as follows: Calcium indicators characterization in primary neuron culture (evoked action potentials). The note with it: for ΔF/F0, single AP: 1 AP. In kind it is cell-based.
Protocol: Synaptic blockers (10 μM CNQX, 10 μM CPP, 10 μM GABAZINE, and 1 mM MCPG) were added to block ionotropic glutamate, GABA, and metabotropic glutamate receptors.^21 Each measurement was performed on 3 to 5 wells replicates.
Wide-field imaging was performed on an inverted Nikon Eclipse Ti2 microscope equipped with a SPECTRA X light engine (Lumencore), 20× objective (NA=0.75, Nikon), and imaged onto a scientific CMOS camera (Hamamatsu ORCA-Flash 4.0). […] A quad bandpass filter (set number: 89000, Chroma) was used along with the appropriate color band from the SPECTRA X light source to image 13AM.
The conditions of data set [5]: known indicator, literature value (ref. 15); cited from earlier work.
For data set [6] the following is noted: known indicator, cited from earlier work.
For data set [7] the following is noted: known indicator, literature value (ref. 15); saturating Ca2+; cited from earlier work.
Data set [8] concerns primary cilium in hRPE1 cells expressing 5HT6-HaloTag. The note with it: Ca2+ uncaging with 405 nm light.
Protocol: Tet-on 5HT6-HaloTag RPE cells were plated in 8-well Labtek II chambers (Invitrogen) in 10% FBS DMEM:F12 media. The next day, the cells were serum deprived with 0% FBS DMEM:F12 medium with 100 ng/ml doxycycline to induce 5HT6-HaloTag expression. After 24 h of serum deprivation and doxycycline induction, cells were labeled with 1 μM 13AM overnight. After rinsing in DMEM:F12, the cells were loaded with 4 μM NP-EGTA, AM (ThermoFisher N6803) for 1 h. The medium was then replaced by DMEM Fluorobrite (ThermoFisher) for imaging in a 37° C., 5% CO2 chamber on an inverted Zeiss 880 with Airyscan. For each single cilium, 405 nm laser light (100%, 15 mW, 3s) uncaged free Ca^2+ from NP-EGTA in a 50-70 μm^2 area. Airyscan images were acquired at 0.5-0.8 s/stack for a total of 100 stacks (50-80 s) with 633 laser lines (13AM). Calcium uncaging was performed at the 50th stack. Change in intensity values were calculated in ImageJ using a maximum intensity projection series.
The subject of data set [9] is cultured neurons expressing NES-HaloTag-GFP. The note with it: cells expressing NES-HaloTag-GFP; same imaging conditions; normalized to GFP.
Protocol: Primary rat hippocampal neurons were prepared as described previously and infected with AAV viruses.^1 Stock solutions of the different calcium indicators were prepared at C=1 mM in DMSO containing 20% Pluronic F-127. Cultured neurons were incubated with the cell-permeant sensors at 37° C. for 30 min (7AM and Calcium Orange-AM) or 2 h (12AM and 13AM) before washing twice with imaging buffer containing the following: 145 mM NaCl, 2.5 mM KCl, 10 mM glucose, 10 mM HEPES, pH 7.4, 2 mM CaCl2), 1 mM MgCl2. Synaptic blockers (10 μM CNQX, 10 μM CPP, 10 μM GABAZINE, and 1 mM MCPG) were added to block ionotropic glutamate, GABA, and metabotropic glutamate receptors.^21 Each measurement was performed on 3 to 5 wells replicates.
Wide-field imaging was performed on an inverted Nikon Eclipse Ti2 microscope equipped with a SPECTRA X light engine (Lumencore), 20× objective (NA=0.75, Nikon), and imaged onto a scientific CMOS camera (Hamamatsu ORCA-Flash 4.0). […]
Brightness comparison: The brightness of 12AM, jRGECO1a and jRCaMP1b in neurons were compared under the same illumination conditions. The fluorescence emission in each field of view was background subtracted and normalized by the emission of the fused EGFP to account for differences in expression levels among neurons.
Setting [10] is: cultured hippocampal neurons loaded with AM ester.

“And” between values parts separate entries of the source, which are not always exact repeats. Equal values may be shown once. Read-outs that look alike come from different tables or passages of the source.

For orientation: Kd means a measure of binding affinity in units of concentration.

Chain of HaloTag protein (P0A3G2 other isoform, or with tags, fused parts or gaps with the stated changes): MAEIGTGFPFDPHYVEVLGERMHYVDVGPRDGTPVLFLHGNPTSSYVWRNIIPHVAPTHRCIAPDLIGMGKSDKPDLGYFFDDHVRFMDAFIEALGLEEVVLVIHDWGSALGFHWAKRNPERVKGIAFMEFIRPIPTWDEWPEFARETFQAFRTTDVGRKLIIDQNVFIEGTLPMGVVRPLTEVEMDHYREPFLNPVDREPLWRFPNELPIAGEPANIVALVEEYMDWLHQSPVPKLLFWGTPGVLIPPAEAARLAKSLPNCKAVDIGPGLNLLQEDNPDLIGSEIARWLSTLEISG

For the molecule “3″-BAPTA-JF549-HaloTag ligand [Compound 12]”, the Kd in [1] came to 130 nM. Besides, in data set [1] (in vitro), the ΔF/F0 turned out to be 9.5. In data set [2], this molecule displayed a λmax of 553 nm and a λem of 573 nm. In data set [3], this molecule came in with a ϕsat of 0.78.
Consider `O=C(O)CN(CC(=O)O)c1ccccc1OCCOc1cc(NC(=O)c2ccc(C(=O)[O-])c(-c3c4ccc(=[N+]5CCC5)cc-4oc4cc(N5CCC5)ccc34)c2)ccc1N(CC(=O)O)CC(=O)O` [Compound 4, 6-BAPTA-JF549], for which, in data set [1] (in vitro), the “improvement in ΔF/F0 compared to 3” value is 2 fold and the ΔF/F0 worked out at 4.6. In addition, the Kd in data set [1] was determined as 350 nM. Moreover, in [2], the λmax stood at 555 nm and the λem is listed as 576 nm. Besides, the ϕsat in [3] was 0.78.
With `C[Si]1(C)c2cc(N3CCC3)ccc2C2(OC(=O)c3ccc(C(=O)NCCOCCOCCCCCCCl)cc32)c2ccc(N3CC(C(=O)Nc4ccc(N(CC(=O)O)CC(=O)O)c(OCCOc5ccccc5N(CC(=O)O)CC(=O)O)c4)C3)cc21` (stereo not drawn) [Compound 13, 3″-BAPTA-JF646-HaloTag ligand], the Kd in data set [1] was determined as 280 nM. Besides, in data set [1] (in vitro), the ΔF/F0 is 7.8. In data set [2], this molecule gave a λmax of 646 nm and a λem of 666 nm. The ϕsat in data set [3] is 0.58. For the same molecule, on HaloTag protein, the “increase in fluorescence upon binding to HaloTag” value amounted to 2.4 fold.
Turning to “3″-BAPTA-JF549 tetra-acetoxymethyl ester [Compound 7AM]”, in data set [4] (setting [10]), the “saturating number of APs” value worked out at 40 APs and the “ΔF/F0, single AP” value stood at 0.20. In [4] (cultured hippocampal neurons loaded with AM ester, at saturation), the “maximal ΔF/F0” value came out at 0.80. In data set [4] (cultured neurons), the “brightness compared to cells loaded with 2AM” value is 10 × and the “ΔF/F0 compared to cells loaded with 2AM” value is reported as 10 ×.
Take `O=C(O)CN(CC(=O)O)c1ccccc1OCCOc1cc(NC(=O)C2C[N+](=c3ccc4c(-c5cc(C(=O)NCCOCCOCCCCCCCl)ccc5C(=O)[O-])c5ccc(N6CCC6)cc5oc-4c3)C2)ccc1N(CC(=O)O)CC(=O)O` (stereo not drawn) [Compound 12, 3″-BAPTA-JF549-HaloTag ligand]: the Kd in data set [1] stood at 290 nM. In addition, the ΔF/F0 in data set [1] (in vitro) was 14 and 13.8. In data set [2], this molecule displayed a λmax of 550 nm and a λem of 574 nm. The same molecule displayed a ϕsat in [3] of 0.74.
For Calcium Orange [Compound 2], in [5], the Kd is 185 nM and the ΔF/F0 was 3. Moreover, in [6] (literature value (ref. 15)), the λem is on record as 574 nm and the λmax is listed as 549 nm. For the same molecule, the “excitation maxima (λex)” value in [6] (literature value) was 549 nm. The ϕsat in [7] is 0.33.
For the molecule `O=C(O)CN(CC(=O)O)c1ccc(NC(=O)C2CN(c3ccc4c(-c5ccccc5C(=O)O)c5ccc(=[N+]6CCC6)cc-5oc4c3)C2)cc1OCCOc1cc(NC(=O)C2C[N+](=c3ccc4c(-c5ccccc5C(=O)O)c5ccc(N6CCC6)cc5oc-4c3)C2)ccc1N(CC(=O)O)CC(=O)O` (stereo not drawn) [Compound 9, 3″-BAPTA-bisJF549], in data set [1] (in vitro), the ΔF/F0 was 75.0. In addition, in [2], the λmax is listed as 512-549 nm and the λem was determined as 570 nm. This molecule also displayed a ϕsat in data set [3] of 0.20.
For the molecule `CN(C(=O)c1cccc(C(=O)O)c1-c1c2ccc(=[N+]3CCC3)cc-2oc2cc(N3CCC3)ccc12)c1ccc(N(CC(=O)O)CC(=O)O)c(OCCOc2ccccc2N(CC(=O)O)CC(=O)O)c1` [Compound 5, 7-MeBAPTA-JF549], the dissociation constant (Kd) in [1] is 570 nM. Besides, the ΔF/F0 in data set [1] (in vitro) was 14. In [2], this molecule returned a λmax of 565 nm and a λem of 583 nm. The molecule further came in with a ϕsat in data set [3] of 0.18.
For “3″-BAPTA-JF646-HaloTag ligand tetra acetoxymethyl ester [Compound 13AM]”, in [4] (cultured hippocampal neurons expressing NES-HaloTag-GFP), the “ΔF/F0, single AP” value is given as 0.11. Besides, the “ΔF/F0 across the entire cilium” value in data set [8] was 0.60.
Turning to `O=C(O)CN(CC(=O)O)c1ccccc1OCCOc1cc(NC(=O)C2C[N+](=c3ccc4c(-c5ccccc5C(=O)[O-])c5ccc(N6CCC6)cc5oc-4c3)C2)ccc1N(CC(=O)O)CC(=O)O` (stereo not drawn) [Compound 7, 3″-BAPTA-JF549], in data set [1], the Kd turned out to be 310 nM. For the same molecule, in data set [1] (in vitro), the ΔF/F0 stood at 15.0. In addition, in data set [2], the “red-shift of λex and λem relative to compound 1” value is given as 50 nm; the λmax was 546 nm; the λem was 569 nm. This molecule also displayed a ϕsat in [3] of 0.75.
As for Oregon Green BAPTA-1 [Compound 1], in data set [5], the Kd was 170 nM and the ΔF/F0 was 14.
With `O=C(O)CN(CC(=O)O)c1ccccc1OCCOc1cc(NC(=O)c2ccc(-c3c4ccc(=[N+]5CCC5)cc-4oc4cc(N5CCC5)ccc34)c(C(=O)[O-])c2)ccc1N(CC(=O)O)CC(=O)O` [Compound 3, 5-BAPTA-JF549], in data set [1], the dissociation constant (Kd) came to 190 nM. In addition, the ΔF/F0 in data set [1] (in vitro) was determined as 2.3. In data set [2], the λmax stood at 554 nm and the λem amounted to 579 nm. In data set [3], this molecule returned a ϕsat of 0.69.
The corresponding values for `O=C(O)CN(CC(=O)O)c1ccccc1OCCOc1cc(NC(=O)C2CC/[N+]2=c2/ccc3c(-c4ccccc4C(=O)[O-])c4ccc(N5CCC5)cc4oc-3c2)ccc1N(CC(=O)O)CC(=O)O` (stereo not drawn) [Compound 6, 2″-BAPTA-JF549] are 270 nM, 27.7, 542 nm, 566 nm and 0.45.
As for `O=C(O)CN(CC(=O)O)c1ccccc1OCCOc1cc(NC(=O)C2CN(c3ccc4c(-c5ccccc5C(=O)[O-])c5ccc(=[N+]6CC(C(=O)Nc7ccc(N(CC(=O)O)CC(=O)O)c(OCCOc8ccccc8N(CC(=O)O)CC(=O)O)c7)C6)cc-5oc4c3)C2)ccc1N(CC(=O)O)CC(=O)O` (stereo not drawn) [Compound 8, 3″,3″′-bisBAPTA-JF549], the Kd in [1] was found to be 730 nM. In addition, in data set [1] (in vitro), the ΔF/F0 was 47.0. In data set [2], the λmax came to 543 nm and the λem is recorded as 566 nm. In data set [3], the ϕsat is 0.70.
For the molecule “3″-BAPTA-JF549-HaloTag ligand tetra acetoxymethyl ester [Compound 12AM]”, in data set [9], the “baseline fluorescence, brighter than jRCaMP1b” value is 3.6 fold and the “baseline fluorescence, brighter than jRGECO1a” value turned out to be 7.8 fold.
